pEC50: −log10 of the molar value.
Columns and labels:
[1] = molecular target: T1, human CaV1.2 (Homo sapiens, UniProt Q13936); test: Sophion QPatch dose-response assay, whole-cell voltage clamp of barium currents in CaV1.2-HEK293(AUX) cells; format: cell-based; details: Table 9, n = 1 unless * n = 2; for pEC50: 6-point dose response, 10 determinations per concentration; for Qpatch Emax: maximal fold change of peak inward current
T1 construct: expressed in transfected cells; host or cells: Flp-In 293 T-Rex (HEK293), monoclonal CaV1.2-HEK293(AUX) clone 2-19B; doxycycline-induced auxiliary subunits
Source text: The monoclonal CaV1.2-HEK293(AUX) cell line constitutively expresses human CaV1.2 alpha1C (α1C) subunit (CACNA1C) and has doxycycline-inducible expression of the alpha2delta (α2Δ2) auxiliary subunit (CACNA2D2) and beta2 (02) auxiliary subunit (CACNB2). To generate the cell line, expression vectors pcDNA5.0/FRT-TO-CACNA2D2-FCS-P2A-CACNB2 and pCMV6-entry-CACNA1C were established via gene synthesis and cloning. Here, pcDNA5.0/FRT-TO plasmid is from Invitrogen, pCMV6-entry is from Origene, FCS stands for Furin Cleavage Site, P2A is a peptide self-cleavage sequence derived from porcine teschovirus-1, and FRT is the Flippase recognition target site. Next, parental line Flp-In™ 293 T-Rex (Invitrogen) was transfected with pcDNA5.0/FRT-TO-CACNA2D2-FCS-P2A-CACNB2 and Flippase vector pOG44 (Invitrogen) to establish targeted integration of the CACNA2D2-FCS-P2A-CACNB2 expression cassette into the pre-engineered FRT site in Flp-In™ 293 T-Rex. This intermediate cell line was then transfected with pCMV6-entry-CACNA1C to establish stable CACNA1C expression. Clonal isolation was achieved under Neomycin selection.
Electrophysiological Characterization of CaV1.2 Activators Using CaV1.2-HEK293(AUX) Cell Line and QPatch
24 hours prior an electrophysiology experiment, doxycycline (1 μg/ml) was added to the growth medium (Table 6), and 25 μM of verapamil was co-applied to prevent calcium influx triggered cell death. Cell confluency should reach 70%-80% right before the experiment. To harvest cells (from a T175 cm^2 flask as an example), growth media were removed completely, and the cells were rinsed with 10 mL of D-PBS. D-PBS was aspirated, and 10 mL of Detachin (Genlantis) was added and the plate was placed in a 37° C. incubator for 10 minutes. Detached cells were placed into a 15 mL conical tube and spun at 1000 rpm for 2 minutes. Supernatant was removed, and cells were re-suspended in QPatch complete media (Table 7) to desired cell density of 1.5-3 million cells per QPatch run. Each experimental run uses 1.5 mL of cells.
The cells suspension was taken to the Sophion QPatch platform that uses whole-cell voltage clamp to measure barium currents conducted through CaV1.2 on single-hole QPlates. Extracellular and intracellular patch clamp solutions are described in Tables 7 and 8, respectively. A dose-response assay protocol was used to determine the maximal fold change of peak inward current (Emax) and potency (EC50) of each compound. The protocol had eight liquid periods. The first liquid period was to stabilize current amplitude, which was monitored using repetitive 200-ms voltage pulses stepping from −80 mV to 0 mV. The second liquid period was to determine baseline current amplitude in the presence of vehicle control, using a single 20-ms voltage pulse stepping from −80 mV to 0 mV. The third through eighth liquid periods were used to ascertain a 6-dose response to compound treatments, also using single 20-ms voltage pulses stepping from −80 mV to 0 mV. The EC50 was generated using the following equation Iconcentration=Ibase+(Ifull−Ibase)*c^n/(XC50^n+c^n), where c is the concentration and n is the Hill coefficient constant. Ifull is the maximal current achievable, and Ibase is 0. A channel biophysics assay protocol was used to determine channel gating properties including current-voltage relationship (IV curves), half-way channel activation voltage (V1/2), rate of channel inactivation (tau), and amplitude of tail current. Among these, V1/2 was derived from fitting equation G(V)=Gvmin+(Gvmax−Gvmin)/(1+exp(−(V−V½)/Vslope)), where G stands for conductance, Gvmin equals 0, Gvmax is the maximal conductance, and Vslope is a slope factor. G(V) was pre-calculated from equation G(V)=I(V)/(V−0.06), for each experimentally applied depolarization potential (V) and the corresponding current amplitude (I(V)), and 0.06 in the equation was the experimentally determined reversal potential in volts. The protocol had four liquid periods.

[2] = Compound exposure in wild-type mice (brain and blood levels); format: in vivo, C57BL/6J male mice; details: Table 9, mice, i.p., one hour after administration; for Kp at 1 h: male, C57BL/6J, mouse, brain (cerebellum) / blood, ip, read-out: Brain:blood ratio
Description: Compound administration and brain tissue collection. Wild-type C57BL/6J male mice were obtained from Jackson laboratories (Bar Harbor, ME). The acute, single-dose effects of CaV1.2 activators of the present disclosure were evaluated in male eight-week old mice (n=6 mice per compound). Each compound was dissolved in 10% PEG300, 10% Solutol, 10% Cremophore EL, and 70% Phosphate Buffered Saline and administered intraperitoneal (i.p.) at a concentration of 1 mg/kg up to 30 mg/kg depending on the compound. Animals were euthanized one hour after compound administration via exsanguination under deep anesthesia. Blood was collected in EDTA tubes for downstream analysis of drug levels. Brains were rapidly removed from the skull, and the cerebral cortex and cerebellum were regionally dissected. Cerebellar samples were snap frozen in liquid nitrogen to assess compound exposure. Cortical samples for cFos assessment were placed in 500 μl of RNAlater solution (ThermoFisher) to preserve the integrity of RNA in the sample. Samples remained in RNAlater for at least 24 hours at 4° C. before moving to −80° C. for storage before processing.
Quantification of compound exposure. Cerebellar tissue samples were homogenized in 4 ml of 20% acetonitrile and 80% Phosphate buffered saline for every 1 g of tissue (5× dilution). Tissue was homogenized using either of the following three methods: hand held probe system, TissueLyser system with 5 mm steel bead at a frequency of 30 s^−1 for 4 min, or OMNI Bead Ruptor Elite homogenizer for 30 seconds to 1 minute depending on tissue type. Tissue samples were added to a 96-well plate (12.5 uL sample) and processed for quantification by mass spectrometry.

T1 sequence (Q13936 1-2138 isoform Q13936-23): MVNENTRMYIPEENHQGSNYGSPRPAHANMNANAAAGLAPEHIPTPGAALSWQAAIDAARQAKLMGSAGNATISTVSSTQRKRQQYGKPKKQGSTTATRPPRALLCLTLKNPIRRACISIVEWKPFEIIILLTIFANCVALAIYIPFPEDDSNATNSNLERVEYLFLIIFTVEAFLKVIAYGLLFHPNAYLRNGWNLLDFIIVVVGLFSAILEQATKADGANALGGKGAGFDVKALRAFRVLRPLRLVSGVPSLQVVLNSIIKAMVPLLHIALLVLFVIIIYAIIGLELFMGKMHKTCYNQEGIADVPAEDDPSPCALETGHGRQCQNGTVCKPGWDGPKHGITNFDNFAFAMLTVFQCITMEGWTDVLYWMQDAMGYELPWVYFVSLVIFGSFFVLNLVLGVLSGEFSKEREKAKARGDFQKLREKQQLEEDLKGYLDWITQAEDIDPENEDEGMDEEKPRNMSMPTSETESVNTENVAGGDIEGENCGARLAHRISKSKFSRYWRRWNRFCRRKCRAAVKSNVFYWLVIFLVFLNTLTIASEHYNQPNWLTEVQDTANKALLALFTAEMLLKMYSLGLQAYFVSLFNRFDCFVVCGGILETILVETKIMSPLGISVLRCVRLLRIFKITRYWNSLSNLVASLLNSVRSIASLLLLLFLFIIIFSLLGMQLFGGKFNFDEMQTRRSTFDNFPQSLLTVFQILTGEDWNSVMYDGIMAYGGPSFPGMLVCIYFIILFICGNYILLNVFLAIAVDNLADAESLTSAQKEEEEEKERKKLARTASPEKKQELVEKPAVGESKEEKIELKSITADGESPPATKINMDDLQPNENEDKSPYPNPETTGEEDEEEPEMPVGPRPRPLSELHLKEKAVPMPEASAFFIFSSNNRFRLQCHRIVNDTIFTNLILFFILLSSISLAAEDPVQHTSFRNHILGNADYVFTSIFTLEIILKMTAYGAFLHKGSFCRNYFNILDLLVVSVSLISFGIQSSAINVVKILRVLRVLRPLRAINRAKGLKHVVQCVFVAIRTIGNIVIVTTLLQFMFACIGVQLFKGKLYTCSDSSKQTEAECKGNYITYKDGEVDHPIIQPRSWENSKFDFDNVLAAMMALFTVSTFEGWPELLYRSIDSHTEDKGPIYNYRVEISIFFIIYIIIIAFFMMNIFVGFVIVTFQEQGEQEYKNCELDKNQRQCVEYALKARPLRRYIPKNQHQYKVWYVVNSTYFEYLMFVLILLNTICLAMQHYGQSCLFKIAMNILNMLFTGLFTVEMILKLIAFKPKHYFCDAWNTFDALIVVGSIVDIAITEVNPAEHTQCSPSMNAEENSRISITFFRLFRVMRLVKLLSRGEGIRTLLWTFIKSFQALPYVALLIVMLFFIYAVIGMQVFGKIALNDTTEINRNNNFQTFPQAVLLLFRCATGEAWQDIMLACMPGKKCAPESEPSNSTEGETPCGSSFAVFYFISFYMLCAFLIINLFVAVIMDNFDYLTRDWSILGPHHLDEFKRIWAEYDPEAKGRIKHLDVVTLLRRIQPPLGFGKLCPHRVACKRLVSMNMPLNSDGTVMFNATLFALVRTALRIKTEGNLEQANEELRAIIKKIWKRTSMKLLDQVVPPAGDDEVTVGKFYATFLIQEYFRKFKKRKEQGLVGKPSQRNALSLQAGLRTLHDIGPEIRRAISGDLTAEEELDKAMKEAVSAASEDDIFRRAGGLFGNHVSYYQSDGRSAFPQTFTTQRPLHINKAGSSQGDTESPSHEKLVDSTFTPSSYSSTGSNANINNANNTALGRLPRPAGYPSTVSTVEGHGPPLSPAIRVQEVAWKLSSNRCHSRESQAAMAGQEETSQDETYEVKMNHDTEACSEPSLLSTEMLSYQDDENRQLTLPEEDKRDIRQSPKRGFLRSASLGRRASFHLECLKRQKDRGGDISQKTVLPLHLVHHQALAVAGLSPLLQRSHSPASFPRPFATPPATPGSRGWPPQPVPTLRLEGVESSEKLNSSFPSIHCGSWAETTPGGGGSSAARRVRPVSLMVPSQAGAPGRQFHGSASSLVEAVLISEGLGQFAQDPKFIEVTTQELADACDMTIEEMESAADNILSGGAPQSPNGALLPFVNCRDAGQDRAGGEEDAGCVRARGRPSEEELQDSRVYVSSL
T1 sequence (Q9NY47 19-1001 partner limits assumed): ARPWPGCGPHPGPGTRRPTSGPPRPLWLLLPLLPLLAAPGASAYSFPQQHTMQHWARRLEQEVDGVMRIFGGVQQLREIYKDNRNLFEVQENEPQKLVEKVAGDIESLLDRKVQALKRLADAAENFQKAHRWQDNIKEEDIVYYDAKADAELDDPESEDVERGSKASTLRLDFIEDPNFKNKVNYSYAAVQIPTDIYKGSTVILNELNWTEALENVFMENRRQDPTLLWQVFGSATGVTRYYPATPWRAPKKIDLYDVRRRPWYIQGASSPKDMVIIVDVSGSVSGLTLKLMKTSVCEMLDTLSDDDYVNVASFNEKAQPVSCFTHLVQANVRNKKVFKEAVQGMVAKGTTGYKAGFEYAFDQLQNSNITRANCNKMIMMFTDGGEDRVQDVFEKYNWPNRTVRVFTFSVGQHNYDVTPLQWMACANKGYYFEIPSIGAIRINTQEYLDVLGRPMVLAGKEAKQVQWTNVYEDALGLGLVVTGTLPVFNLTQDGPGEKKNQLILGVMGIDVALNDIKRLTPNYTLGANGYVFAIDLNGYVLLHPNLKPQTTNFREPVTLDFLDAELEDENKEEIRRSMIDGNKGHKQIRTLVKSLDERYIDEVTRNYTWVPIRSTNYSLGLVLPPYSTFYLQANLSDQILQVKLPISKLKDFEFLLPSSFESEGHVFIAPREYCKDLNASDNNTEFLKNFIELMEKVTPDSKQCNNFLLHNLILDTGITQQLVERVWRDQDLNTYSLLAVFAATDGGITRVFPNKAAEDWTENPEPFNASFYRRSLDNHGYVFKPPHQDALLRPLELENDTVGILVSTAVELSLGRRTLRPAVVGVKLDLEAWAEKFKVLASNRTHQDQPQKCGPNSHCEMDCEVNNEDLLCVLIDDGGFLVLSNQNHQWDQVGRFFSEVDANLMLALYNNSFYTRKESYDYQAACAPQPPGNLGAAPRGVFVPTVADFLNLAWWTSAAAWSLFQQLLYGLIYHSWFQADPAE
T1 sequence (Q9NY47 1002-1150 partner limits assumed): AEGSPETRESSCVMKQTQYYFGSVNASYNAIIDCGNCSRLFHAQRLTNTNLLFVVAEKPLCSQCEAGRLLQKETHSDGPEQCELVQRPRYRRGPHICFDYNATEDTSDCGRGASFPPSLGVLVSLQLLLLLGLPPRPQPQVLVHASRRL
T1 sequence (Q08289 whole entry partner): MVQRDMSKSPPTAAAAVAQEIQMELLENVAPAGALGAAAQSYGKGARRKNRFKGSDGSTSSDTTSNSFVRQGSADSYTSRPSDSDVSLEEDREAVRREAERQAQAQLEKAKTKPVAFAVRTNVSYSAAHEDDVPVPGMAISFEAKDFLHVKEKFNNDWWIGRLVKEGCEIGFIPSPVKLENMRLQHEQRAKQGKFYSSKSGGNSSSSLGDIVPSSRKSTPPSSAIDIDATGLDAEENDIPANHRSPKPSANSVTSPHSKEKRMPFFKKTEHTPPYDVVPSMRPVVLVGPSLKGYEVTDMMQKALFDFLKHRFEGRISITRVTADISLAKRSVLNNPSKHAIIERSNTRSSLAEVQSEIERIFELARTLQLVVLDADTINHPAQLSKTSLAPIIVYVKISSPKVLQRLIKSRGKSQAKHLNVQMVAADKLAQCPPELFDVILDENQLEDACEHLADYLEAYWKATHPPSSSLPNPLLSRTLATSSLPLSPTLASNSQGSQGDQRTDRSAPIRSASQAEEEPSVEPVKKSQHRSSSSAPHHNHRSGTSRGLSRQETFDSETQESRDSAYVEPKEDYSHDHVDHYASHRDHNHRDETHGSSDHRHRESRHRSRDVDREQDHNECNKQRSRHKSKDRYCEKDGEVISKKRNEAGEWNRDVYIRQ

| Kp at 1 h [2] | Brain:blood ratio [2] | Compound | pEC50 [1] | Qpatch Emax [1] |
| --- | --- | --- | --- | --- |
| 2.9 |  | COC(=O)C1=C(CF)NC2=C(C(=O)OC2)[C@H]1c1cccc(F)c1[C@H]1CC1(F)F (single isomer, unassigned) [Example 1, methyl (R)-4-(2-((R or S)-2,2-difluorocyclopropyl)-3-fluorophenyl)-2-(fluoromethyl)-5-oxo-1,4,5,7-tetrahydrofuro[3,4-b]pyridine-3-carboxylate] | 7.62 | 1.9 |
| 1.5 |  | COC(=O)C1=C(CF)NC2=C(C(=O)OC2)[C@H]1c1cccc(F)c1C1CC1 (single isomer, unassigned) [Example 2] | 7.92 | 2.3 |
| 2.8 |  | COC(=O)C1=C(CF)NC2=C(C(=O)OC2)[C@H]1c1cc(F)cc(F)c1[C@H]1CC1(F)F (single isomer, unassigned) [Example 3, Methyl (R)-4-(2-((R or S)-2,2-difluorocyclopropyl)-3,5-difluorophenyl)-2-(fluoromethyl)-5-oxo-1,4,5,7-tetrahydrofuro[3,4-b]pyridine-3-carboxylate] | 7.30 | 1.6 |
|  | 1.4 | COC(=O)C1=C(CF)NC2=C(C(=O)OC2)[C@H]1c1cc(F)cc(F)c1[C@H]1CC1(F)F (single isomer, unassigned) [Example 4, Methyl (R)-4-(2-((R or S)-2,2-difluorocyclopropyl)-3,5-difluorophenyl)-2-(fluoromethyl)-5-oxo-1,4,5,7-tetrahydrofuro[3,4-b]pyridine-3-carboxylate] | 7.70 | 1.9 |
| 3.3 |  | COC(=O)C1=C(CF)NC2=C(C(=O)OC2)[C@H]1c1cc(F)cc(F)c1[C@H](C)F (single isomer, unassigned) [Example 5, methyl (R)-4-(3,5-difluoro-2-((R or S)-1-fluoroethyl)phenyl)-2-(fluoromethyl)-5-oxo-1,4,5,7-tetrahydrofuro[3,4-b]pyridine-3-carboxylate] | 7.70 | 1.9 |
| 1.5 |  | COC(=O)C1=C(CF)NC2=C(C(=O)OC2)[C@H]1c1cccc(F)c1[C@H](F)CF (single isomer, unassigned) [Example 6] | 7.77 | 1.4* |
|  |  | COC(=O)C1=C(CF)NC2=C(C(=O)CC2)[C@H]1c1cccc(F)c1[C@@H](F)CF (single isomer, unassigned) [Example 7, methyl (R)-4-(2-((R or S)-1,2-difluoroethyl)-3-fluorophenyl)-2-(fluoromethyl)-5-oxo-4,5,6,7-tetrahydro-1H-cyclopenta[b]pyridine-3-carboxylate] | 7.52 | 1.8 |
| 3.5 |  | COC(=O)C1=C(CF)NC2=C(C(=O)OC2)[C@H]1c1cccc(F)c1[C@@H](C)F (single isomer, unassigned) [Example 8] | 7.70 | 2.0 |
| 1.5 |  | COC(=O)C1=C(CF)NC2=C(C(=O)OC2)[C@H]1c1ccccc1OC(F)F (single isomer, unassigned) [Example 9] | 7.00 | 1.5 |
| 0.9 |  | COC(=O)C1=C(CF)NC2=C(C(=O)OC2)[C@H]1c1cc(F)cc(F)c1C(F)(F)F (single isomer, unassigned) [Example 10] | 7.40 | 1.8 |
| 1.1 |  | COC(=O)C1=C(CF)NC2=C(C(=O)OC2)[C@H]1c1cccc(F)c1CC(F)F (single isomer, unassigned) [Example 11] | 7.15 | 2.0 |
| 3.5 |  | COC(=O)C1=C(CF)NC2=C(C(=O)OC2)[C@H]1c1cc(F)cc(F)c1C1CC1 (single isomer, unassigned) [Example 13] | 7.70 | 1.6* |
| 1.7 |  | COC(=O)C1=C(CF)NC2=C(C(=O)OC2)[C@H]1c1cccc(F)c1C(F)F (single isomer, unassigned) [Example 15] | 6.54 | 1.3 |
| 3.2 |  | COC(=O)C1=C(CF)NC2=C(C(=O)OC2)[C@H]1c1cc(F)cc(F)c1[C@H](F)CF (single isomer, unassigned) [Example 16, methyl (R)-4-(2-((R or S)-1,2-difluoroethyl)-3,5-difluorophenyl)-2-(fluoromethyl)-5-oxo-1,4,5,7-tetrahydrofuro[3,4-b]pyridine-3-carboxylate] | 8.00 | 1.5 |
| 2.1 |  | COC(=O)C1=C(CF)NC2=C(C(=O)OC2)[C@H]1c1cccc(F)c1C(F)(F)F (single isomer, unassigned) [Example 17] | 6.92 | 1.2 |
| 1 |  | COC(=O)C1=C(CF)NC2=C(C(=O)OC2)[C@H]1c1cc(F)cc(F)c1C(F)F (single isomer, unassigned) [Example 18] | 6.68 | 1.8 |
| 1.2 |  | COC(=O)C1=C(CF)NC2=C(C(=O)OC2)[C@H]1c1cc(F)ccc1C(F)(F)F (single isomer, unassigned) [Example 23] | 6.92 | 3.5 |
| 1.1 |  | COC(=O)C1=C(CF)NC2=C(C(=O)CC2)[C@H]1c1cccc(F)c1C1CC1 (single isomer, unassigned) [Example 28] | 7.22 | 1.9 |

— patent publication US20250304594A1, “METHYL (R)-2-(FLUOROMETHYL)-5-OXO-4-PHENYL-4,5,6,7-TETRAHYDRO-1H-CYCLOPENTA[B]PYRIDINE-3-CARBOXYLATE AND METHYL (R)-2-(FLUOROMETHYL)-5-OXO-4-PHENYL-1,4,5,7-TETRAHYDROFURO[3,4-B]PYRIDINE-3-CARBOXYLATE AS Cav1,2 ACTIVATORS” (Novartis AG, priority 2020, published 2025)
